Measured values from paper PMC10605077, “In Vitro and In Silico Antiviral Activity of Di-Halogenated Compounds Derived from L-Tyrosine against Human Immunodeficiency Virus 1 (HIV-1)” (Current Issues in Molecular Biology, 2023).

Experiment: Viability assay of PBMC, flow cytometry with viability dye
Type: cell-based, Human
Details: human, PBMC stimulated with PHA and IL-2; all concentrations tested (18.75 μM up to 150 μM), 7 days; read-out: viability level on PBMCs
Procedure: PBMCs were thawed and let in the culture in RPMI with 10% fetal bovine serum (FBS) (Gibco, Grand Island, NY, USA) for 24 h before each experiment. Cells were stimulated for 48 h with 8 μg/mL of Phytohemagglutinin-PHA (Sigma-Aldrich, St. Louis, MO, USA) and 50 UI/mL of IL-2 (Peprotech, Rocky Hill, CT, USA). In the presence of various concentrations of di-halogenated compounds derived from L-Tyrosine, 2 × 10^5 cells per well were treated and resuspended in 200 µL of fresh medium with 20 UI/mL of IL-2 and incubated in 96-well culture plates for 7 days. After 7 days post-treatment, cell viability was determined using flow cytometry. Briefly, cells were stained with fixable viability dye eFluor 506 (eBioscience, Leicestershire, UK) as detailed in the manufacturer’s protocol for 30 min in the dark. Later, cells were washed and resuspended in PBS, and the percentage of viable cells was measured instead in the LS Fortessa cytometer (BD Biosciences, Franklin Lakes, NJ, USA). Data were analyzed using FlowJo version 10.5.3 (FlowJo, LLC, Ashland, OR, USA).

SMILES: COc1c(Cl)cc(C[C@@H](C(=O)O)N(C)C)cc1Cl [TODC-2M]
- viability at 7 days: > 90%
